# According to patent US8252832B2, “Kinesin inhibitors as cancer therapeutics” (Novartis AG, priority 2007, dated 2012):
# Read-outs that look alike come from different tables or passages of the source.
# System: panel of cell lines and tumor explants
# Assay: Soft agar (clonogenic) assay on cell lines and tumor explants
# Assay type: cell-based, human
# Set-up: key to Differential: panel average log(GI50) minus sample log(GI50); positive = more sensitive
# Details: for GI50: Homo sapiens; for Differential: average log(GI50) 0.236 minus log(GI50)
# Protocol: Compound IIa was tested against a panel of cell lines and tumor explants in a soft agar assay as described in Fiebig, H. H., Maier, A., and Burger, A. M. (Clonogenic assay with established human tumour xenorafts: correlation of in vitro to in vivo activity as a basis for anticancer drug discovery, Eur. J. Cancer 40, 802-820 (2004).) Table 16 lists the type of cancer, the name of the sample, its GI50 (concentration needed to achieve 50% growth inhibition) value in the assay, the logarithm of the GI50 (log(GI50), and the relative sensitivity of each sample (Differential). The differential is calculated by subtracting the log(GI50) for each cell line from the average log(GI50) across the entire panel (0.236 in this case); a positive value indicates a sample that is more sensitive than average, whereas a negative value indicates a sample that is less sensitive than average.
smiles,measurement,setting,value
CC(C)(C)[C@H](c1nc(-c2cc(F)ccc2F)cn1Cc1ccccc1)N(CC[C@H](N)CF)C(=O)CO [Compound IIa],GI50,"Sarcoma, sample 117, GI50 in nM, read-out: log(GI50) (converted)",0.249 nM
same,GI50,"Sarcoma, sample 117, read-out: GI50",0.249 nM
same,GI50,"Sarcoma, sample 417, GI50 in nM, read-out: log(GI50) (converted)",0.16 nM
same,GI50,"Sarcoma, sample 417, read-out: GI50",0.16 nM
same,GI50,"Sarcoma, sample 463, GI50 in nM, read-out: log(GI50) (converted)",19.1 nM
same,GI50,"Sarcoma, sample 463, read-out: GI50",19.1 nM
same,GI50,"Sarcoma, sample 627, GI50 in nM, read-out: log(GI50) (converted)",≥ 10 nM
same,GI50,"Sarcoma, sample 627, read-out: GI50",10 nM
same,GI50,"Sarcoma, sample 1186, GI50 in nM, read-out: log(GI50) (converted)",0.327 nM
same,GI50,"Sarcoma, sample 1186, read-out: GI50",0.327 nM
same,GI50,"Sarcoma, sample 1301, GI50 in nM, read-out: log(GI50) (converted)",0.235 nM
same,GI50,"Sarcoma, sample 1301, read-out: GI50",0.235 nM
same,GI50,"Sarcoma, sample 1410, GI50 in nM, read-out: log(GI50) (converted)",2.24 nM
same,GI50,"Sarcoma, sample 1410, read-out: GI50",2.25 nM
same,GI50,"U-937, Lymphoma (NHL), sample U937, GI50 in nM, read-out: log(GI50) (converted)",0.0859 nM
same,GI50,"U-937, Lymphoma (NHL), sample U937, read-out: GI50",0.086 nM
same,Differential,"Leukemia (ALL), sample CCRFCEM",0.779
same,Differential,"Leukemia (ALL), sample JURKAT",1.211
same,Differential,"Leukemia (ALL), sample MOLT4",0.293
same,Differential,"Leukemia (CML), sample K562",0.805
same,Differential,"Lymphoma (NHL), sample U937",1.302
same,log(GI50),"Mean across the entire panel, GI50 in nM",0.236
same,Differential,"Melanoma, sample 462",−0.764
same,Differential,"Melanoma, sample 989",−0.868
same,Differential,"Melanoma, sample 1341",−0.764
same,Differential,"NSCLC, sample 211",0.902
same,Differential,"NSCLC, sample 289",−0.454
same,Differential,"NSCLC, sample 526",0.134
same,Differential,"NSCLC, sample 629",−0.764
same,Differential,"NSCLC, sample 677",0.171
same,Differential,"NSCLC, sample 737",−0.250
same,Differential,"NSCLC, sample 1012",0.270
same,Differential,"NSCLC, sample 1176",−0.241
same,Differential,"NSCLC, sample 1422",0.374
same,Differential,"NSCLC, sample 1647",−0.988
same,Differential,"Ovarian, sample 899",−0.764
same,Differential,"Ovarian, sample 1353",−0.764
same,Differential,"Pancreas, sample 546",−0.177
same,Differential,"Pancreas, sample 736",0.134
same,Differential,"Pancreas, sample 1657",−1.194
same,Differential,"Pancreas, sample 1861",0.442
same,Differential,"Pancreas, sample 1869",−0.800
same,Differential,"Pancreas, sample 1872",0.786
same,Differential,"Pancreas, sample 1876",0.709
same,Differential,"Pancreas, sample 1881",−0.128
same,Differential,"Pancreas, sample 1887",−0.764
same,Differential,"Pancreas, sample 1900",−0.992
same,Differential,"Pancreas, sample 1912",1.187
same,Differential,"Pancreas, sample 1937",0.969
same,Differential,"Prostate, sample 22RV1",0.506
same,Differential,"Prostate, sample DU145",0.236
same,Differential,"Prostate, sample MRIH1579",−0.764
same,Differential,"Prostate, sample PC3M",0.609
same,Differential,"SCLC, sample 538",0.706
same,Differential,"SCLC, sample 573",0.468
same,Differential,"SCLC, sample 615",1.323
same,Differential,"SCLC, sample 650",0.661
same,Differential,"SCLC, sample H69",0.807
same,Differential,"Sarcoma, sample 117",0.840
same,Differential,"Sarcoma, sample 417",1.032
same,Differential,"Sarcoma, sample 463",−1.045
same,Differential,"Sarcoma, sample 627",−0.764
same,Differential,"Sarcoma, sample 1186",0.722
same,Differential,"Sarcoma, sample 1301",0.865
same,Differential,"Sarcoma, sample 1410",−0.115
same,sensitive samples / samples,bladder,4/6
same,sensitive samples / samples,breast,7/10
same,sensitive samples / samples,hematological cancers (leukemia and lymphoma),5/5
same,sensitive samples / samples,sarcomas,4/7
same,sensitive samples / samples,small cell lung cancer (SCLC),5/5
same,average log(GI50) across the entire panel,soft agar assay panel,0.236
